Assay results: patent US7879848B2, “Dipeptidyl Peptidase-IV inhibiting compounds, method of preparing the same, and pharmaceutical compositions containing the same as an active agent” (LG Life Sciences, Ltd., priority 2005, dated 2011)

These compounds were tested against T1, Dipeptidyl Peptidase-IV (DPP-IV) (Homo sapiens, UniProt P27487) (assay: Measurement of DPP-IV Activity-Inhibiting Ability (fluorescent substrate Ac-Gly-Pro-AFC)). Conditions: 25° C., 50 mmol HEPES (pH 7.4), DP-IV 7.1 nM, enzyme reaction for 1 hour.
T1 construct: made in house
T1 sequence (P27487 whole entry): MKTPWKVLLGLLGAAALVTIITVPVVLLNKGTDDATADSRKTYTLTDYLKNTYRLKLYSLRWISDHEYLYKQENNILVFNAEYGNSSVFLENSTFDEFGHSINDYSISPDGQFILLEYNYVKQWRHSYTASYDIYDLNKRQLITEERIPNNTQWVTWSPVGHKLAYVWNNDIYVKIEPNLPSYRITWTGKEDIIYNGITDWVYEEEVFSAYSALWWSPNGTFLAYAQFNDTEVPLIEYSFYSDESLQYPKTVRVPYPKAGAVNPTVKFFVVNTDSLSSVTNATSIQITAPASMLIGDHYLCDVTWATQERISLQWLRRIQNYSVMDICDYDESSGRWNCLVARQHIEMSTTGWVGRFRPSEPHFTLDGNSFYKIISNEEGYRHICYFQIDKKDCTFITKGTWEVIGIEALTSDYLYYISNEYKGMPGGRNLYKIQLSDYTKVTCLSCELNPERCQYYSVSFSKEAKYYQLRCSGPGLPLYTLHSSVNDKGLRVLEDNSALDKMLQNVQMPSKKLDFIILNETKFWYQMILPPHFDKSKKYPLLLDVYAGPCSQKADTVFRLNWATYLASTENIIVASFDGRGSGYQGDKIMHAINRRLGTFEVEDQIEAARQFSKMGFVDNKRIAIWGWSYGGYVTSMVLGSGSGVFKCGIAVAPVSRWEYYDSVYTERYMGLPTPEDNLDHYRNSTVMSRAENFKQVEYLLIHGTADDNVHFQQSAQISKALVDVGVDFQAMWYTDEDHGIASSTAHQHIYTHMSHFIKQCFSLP
Assay type: biochemical
Method in brief: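 Baculovirus-expressed, nickel-purified enzyme (7.1 nM) was reacted with 100 µM Ac-Gly-Pro-AFC in 50 mmol HEPES pH 7.4 at 25 °C across a range of inhibitor concentrations. Product fluorescence was read at excitation 400 nm and emission 505 nm.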

| Compound | IC50 [nM] |
| --- | --- |
| CC(C)c1nc2c(c(C(F)(F)F)n1)CCN(C(=O)C[C@H](N)CN1CC(F)(F)CCC1=O)C2 [Ex. 74, 1-{(2S)-2-amino-4-[2-isopropyl-4-(trifluoromethyl)-5,8-dihydropyrido[3,4-d]pyrimidin-7(6H)-yl]-4-oxobutyl}-5,5-difluoropiperidin-2-one] | 26 |
| CC(C)c1nc2c(c(C(F)(F)F)n1)CCN(C(=O)C[C@H](N)CN1C[C@H](C)CCC1=O)C2 [Ex. 75, 1-{(2S)-2-amino-4-[2-isopropyl-4-(trifluoromethyl)-5,8-dihydropyrido[3,4-d]pyrimidin-7(6H)-yl]-4-oxobutyl}-5-methylpiperidin-2-one] | 16 |
| CC(C)c1nc2c(c(C(F)(F)F)n1)CCN(C(=O)C[C@H](N)CN1C[C@H](C)OCC1=O)C2 [Ex. 76, (6S)-4-{(2S)-2-amino-4-[2-isopropyl-4-(trifluoromethyl)-5,8-dihydropyrido[3,4-d]pyrimidin-7(6H)-yl]-4-oxobutyl}-6-methylmorpholine-3-one] | 30 |
| C[C@@H]1CN(C[C@@H](N)CC(=O)N2CCn3c(nnc3C(F)(F)F)C2)C(=O)CO1 [Ex. 77, (6R)-4-{(2S)-2-amino-4-oxo-4-[3-(trifluoromethyl)-5,6-dihydro[1,2,4]triazolo[4,3-a]pyrazin-7(8H)-yl]butyl}-6-methylmorpholine-3-one] | 94 |
| C[C@H]1CN(C[C@@H](N)CC(=O)N2CCn3c(nnc3C(F)(F)F)C2)C(=O)CO1 [Ex. 78, (6S)-4-{(2S)-2-amino-4-oxo-4-[3-(trifluoromethyl)-5,6-dihydro[1,2,4]triazolo[4,3-a]pyrazin-7(8H)-yl]butyl}-6-methylmorpholine-3-one] | 163 |
| C[C@H]1CCC(=O)N(C[C@@H](N)CC(=O)N2CCn3c(nnc3C(F)(F)F)C2)C1 [Ex. 79, (5S)-1-{(2S)-2-amino-4-oxo-4-[3-(trifluoromethyl)-5,6-dihydro[1,2,4]triazolo[4,3-a]pyrazin-7(8H)-yl]butyl}-5-methylpiperidin-2-one] | 385 |
| C[C@H]1CCC(=O)N(C[C@@H](N)CC(=O)N2CCc3c(nc(C(F)(F)F)nc3C(F)(F)F)C2)C1 [Ex. 80] | 8850 |
| Cc1nc2c(c(C(F)(F)F)n1)CCN(C(=O)C[C@H](N)CN1C[C@H](C)CCC1=O)C2 [Ex. 81, (5R)-1-{(2S)-2-amino-4-[2-methyl-4-(trifluoromethyl)-5,8-dihydropyrido[3,4-d]pyrimidin-7(6H)-yl]-4-oxobutyl}-5-methylpiperidin-2-one] | 10 |
| C[C@@H]1CCC(=O)N(C[C@@H](N)CC(=O)N2CCc3c(nc(C(F)(F)F)nc3C(F)(F)F)C2)C1 [Ex. 82, (5R)-1-{(2S)-2-amino-4-[2,4-bis(trifluoromethyl)-5,8-dihydropyrido[3,4-d]pyrimidin-7(6H)-yl]-4-oxobutyl}-5-methylpiperidin-2-one] | 16 |
| C[C@H]1CN(C[C@@H](N)CC(=O)N2CCc3c(nc(C(F)(F)F)nc3C(F)(F)F)C2)C(=O)CO1 [Ex. 84] | 38 |
| Cc1nc2c(c(C(F)(F)F)n1)CCN(C(=O)C[C@H](N)CN1CC(F)(F)CCC1=O)C2 [Ex. 85, 1-{(2S)-2-amino-4-[2-methyl-4-(trifluoromethyl)-5,8-dihydropyrido[3,4-d]pyrimidin-7(6H)-yl]-4-oxobutyl}-5,5-difluoropiperidin-2-one] | 16 |
| Cc1nc2c(c(C(F)(F)F)n1)CCN(C(=O)C[C@H](N)CN1C[C@H](C)OCC1=O)C2 [Ex. 86] | 30 |
| N[C@@H](CC(=O)N1CCc2c(ncnc2C(F)(F)F)C1)CN1CC(F)(F)CCC1=O [Ex. 87, 1-{(2S)-2-amino-4-oxo-4-[4-(trifluoromethyl)-5,8-dihydropyrido[3,4-d]pyrimidin-7(6H)-yl]butyl}-5,5-difluoropiperidin-2-one] | 29 |
| C[C@H]1CN(C[C@@H](N)CC(=O)N2CCc3c(ncnc3C(F)(F)F)C2)C(=O)CO1 [Ex. 88, (6S)-4-{(2S)-2-amino-4-oxo-4-[4-(trifluoromethyl)-5,8-dihydropyrido[3,4-d]pyrimidin-7(6H)-yl]butyl}-6-methylmorpholine-3-one] | 48 |
| N[C@@H](CC(=O)N1CCn2c(nnc2C(F)(F)C(F)(F)F)C1)CN1CC(F)(F)CCC1=O [Ex. 89, 1-{(2S)-2-amino-4-oxo-4-[3-(pentafluoroethyl)-5,6-dihydro[1,2,4]triazolo[4,3-a]pyrazin-7(8H)-yl]butyl}-5,5-difluoropiperidin-2-one] | 214 |
| C[C@H]1CN(C[C@@H](N)CC(=O)N2CCn3c(nnc3C(F)(F)C(F)(F)F)C2)C(=O)CO1 [Ex. 90, (6S)-4-{(2S)-2-amino-4-oxo-4-[3-(pentafluoroethyl)-5,6-dihydro[1,2,4]triazolo[4,3-a]pyrazin-7(8H)-yl]butyl}-6-methylmorpholine-3-one] | 356 |

| Compound | IC50 [nM] |
| --- | --- |
| CC1CN(C[C@@H](N)CC(=O)N2CCc3c(nc(C(F)(F)F)nc3C(F)(F)F)C2)C(=O)CS1 (stereo partly drawn) [Ex. 91, 4-{(2S)-2-amino-4-[2,4-bis(trifluoromethyl)-5,8-dihydropyrido[3,4-d]pyrimidin-7(6H)-yl]-4-oxobutyl}-6-methylthiomorpholin-3-one] | 85 |
| CC(C)(C)c1nc2c(c(C(F)(F)F)n1)CCN(C(=O)C[C@H](N)CN1CC(F)(F)CCC1=O)C2 [Ex. 92, 1-{(2S)-2-amino-4-[2-t-butyl-4-(trifluoromethyl)-5,8-dihydropyrido[3,4-d]pyrimidin-7(6H)-yl]-4-oxobutyl}-5,5-difluoropiperidin-2-one] | 48 |
| C[C@H]1CN(C[C@@H](N)CC(=O)N2CCc3c(nc(C(C)(C)C)nc3C(F)(F)F)C2)C(=O)CO1 [Ex. 93] | 55 |
| CC1CN(C[C@@H](N)CC(=O)N2CCn3c(nnc3C(F)(F)F)C2)C(=O)CS1 (stereo partly drawn) [Ex. 94, 4-{(2S)-2-amino-4-oxo-4-[3-(trifluoromethyl)-5,6-dihydro[1,2,4]triazolo[4,3-a]pyrazin-7(8H)-yl]butyl}-6-methylthiomorpholin-3-one] | 238 |
| CCc1nc2c(c(C(F)(F)F)n1)CCN(C(=O)C[C@H](N)CN1C[C@H](C)CCC1=O)C2 [Ex. 95, (5R)-1-{(2S)-2-amino-4-[2-ethyl-4-(trifluoromethyl)-5,8-dihydropyrido[3,4-d]pyrimidin-7(6H)-yl]-4-oxobutyl}-5-methylpiperidin-2-one] | 13 |
| C[C@@H]1CCC(=O)N(C[C@@H](N)CC(=O)N2CCc3c(nc(C(F)(F)C(F)(F)F)nc3C(F)(F)F)C2)C1 [Ex. 96, (5R)-1-{(2S)-2-amino-4-oxo-4-[2-(pentafluoroethyl)-4-(trifluoromethyl)-5,8-dihydropyrido[3,4-d]pyrimidin-7(6H)-yl]butyl}-5-methylpiperidin-2-one] | 7 |
| C[C@H]1CN(C[C@@H](N)CC(=O)N2CCc3c(nc(C(F)(F)C(F)(F)F)nc3C(F)(F)F)C2)C(=O)CO1 [Ex. 97, (6S)-4-{(2S)-2-amino-4-oxo-4-[2-(pentafluoroethyl)-4-(trifluoromethyl)-5,8-dihydropyrido[3,4-d]pyrimidin-7(6H)-yl]butyl}-6-methylmorpholine-3-one] | 57 |
| N[C@@H](CC(=O)N1CCc2c(nc(C(F)(F)C(F)(F)F)nc2C(F)(F)F)C1)CN1CC(F)(F)CCC1=O [Ex. 98, 1-{(2S)-2-amino-4-oxo-4-[2-(pentafluoroethyl)-4-(trifluoromethyl)-5,8-dihydropyrido[3,4-d]pyrimidin-7(6H)-yl]butyl}-5,5-difluoropiperidin-2-one] | 68 |
| CCCc1nc2c(c(C(F)(F)F)n1)CCN(C(=O)C[C@H](N)CN1C[C@H](C)CCC1=O)C2 [Ex. 99, (5R)-1-{(2S)-2-amino-4-oxo-4-[2-propyl-4-(trifluoromethyl)-5,8-dihydropyrido[3,4-d]pyrimidin-7(6H)-yl]butyl}-5-methylpiperidin-2-one] | 19 |
| CCCc1nc2c(c(C(F)(F)F)n1)CCN(C(=O)C[C@H](N)CN1CC(F)(F)CCC1=O)C2 [Ex. 100, 1-{(2S)-2-amino-4-oxo-4-[2-propyl-4-(trifluoromethyl)-5,8-dihydropyrido[3,4-d]pyrimidin-7(6H)-yl]butyl}-5,5-difluoropiperidin-2-one] | 18 |
| C[C@@H]1CCC(=O)N(C[C@@H](N)CC(=O)N2CCc3c(nc(CF)nc3C(F)(F)F)C2)C1 [Ex. 101, (5R)-1-{(2S)-2-amino-4-[2-(fluoromethyl)-4-(trifluoromethyl)-5,8-dihydropyrido[3,4-d]pyrimidin-7(6H)-yl]-4-oxobutyl}-5-methylpiperidin-2-one] | 21 |
| N[C@@H](CC(=O)N1CCc2c(nc(CF)nc2C(F)(F)F)C1)CN1CC(F)(F)CCC1=O [Ex. 102, 1-{(2S)-2-amino-4-[2-(fluoromethyl)-4-(trifluoromethyl)-5,8-dihydropyrido[3,4-d]pyrimidin-7(6H)-yl]-4-oxobutyl}-5,5-difluoropiperidin-2-one] | 29 |
| CC1=CC(=O)N(C[C@@H](N)CC(=O)N2CCc3c(nc(C(F)(F)F)nc3C(F)(F)F)C2)C1 [Ex. 103, 1-{(2S)-2-amino-4-[2,4-bis(trifluoromethyl)-5,8-dihydropyrido[3,4-d]pyrimidin-7(6H)-yl]-4-oxobutyl}-4-methyl-1,5-dihydro-2H-pyrrol-2-one] | 74 |
| CC1=CC(=O)N(C[C@@H](N)CC(=O)N2CCc3c(nc(-c4ccoc4)nc3C(F)(F)F)C2)C1 [Ex. 104, 1-{(2S)-2-amino-4-[2-(3-furyl)-4-(trifluoromethyl)-5,8-dihydropyrido[3,4-d]pyrimidin-7(6H)-yl]-4-oxobutyl}-4-methyl-1,5-dihydro-2H-pyrrol-2-one] | 110 |
| CC1CC(=O)N(C[C@@H](N)CC(=O)N2CCc3c(nc(C(F)(F)F)nc3C(F)(F)F)C2)C1 (stereo partly drawn) [Ex. 105, 1-{(2S)-2-amino-4-[2,4-bis(trifluoromethyl)-5,8-dihydropyrido[3,4-d]pyrimidin-7(6H)-yl]-4-oxobutyl}-4-methyloxopyrrolidin-2-one] | 59 |
| CC1CC(=O)N(C[C@@H](N)CC(=O)N2CCc3c(nc(-c4ccoc4)nc3C(F)(F)F)C2)C1 (stereo partly drawn) [Ex. 106, 1-{(2S)-2-amino-4-[2-(3-furyl)-4-(trifluoromethyl)-5,8-dihydropyrido[3,4-d]pyrimidin-7(6H)-yl]-4-oxobutyl}-4-methylpyrrolidin-2-one] | 45 |
